Data on ten compounds can be found in PubChem BioAssay AID1918953 (Molecular Pharmacology Branch, DTP, NCI, 2023).

What is called viability, T/C is the ratio of treated to control. As a reminder, the IC50 is the concentration that inhibits the measured activity by half.

Several values for one entry are separate records, joined by “and”; a condition that tells them apart may be missing. Equal entries are not always repeated.

This experiment relates to MDA-MB-231 complex spheroid viability. Briefly: Anticancer human tumor MDA-MB-231/ATCC cell line growth inhibition.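 On all read-outs here: drug exposure lasted 7 days starting on day 3 of spheroid growth.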 Conditions: for viability, T/C: stronger effect = lower value; for IC50: curve of compound. The source says: Multicellular complex tumor spheroid response to LSD1 Inhibitor Iadademstat in combination with a variety of drugs and investigational agents in selected tumor cell lines
The current study was undertaken to assess response to LSD1 inhibitors in combination with standard-of-care drugs and investigational agents in solid tumor complex spheroid models as well as in the K-562 leukemia. Complex spheroids include a stromal component modeled by human endothelial cells (HUVEC) and fibroblasts modeled by human mesenchymal stem cells (MSCs). The concentration ranges selected for each drug and investigational agent were based upon clinically achievable concentrations if the clinical Cmax of the agent was known.
Compounds. The drugs and investigational agents used in this study are listed on Table 1. All of the agents used, including staurosporine (NSC755774) and gemcitabine (NSC613327), were obtained from the Developmental Therapeutics Program, NCI. FDA-approved anticancer drugs are available from the NCI at http://dtp.nci.nih.gov/branches/dscb/oncology_drugset_explanation.html. Drugs and investigational agents were >95% pure by proton nuclear magnetic resonance (NMR) and liquid chromatography/mass spectrometry (LC/MS). Stock solutions were prepared at 400x in DMSO, stored at -70 degrees C, and diluted in fresh medium prior to their use. The final concentration of DMSO in cell culture wells never exceeded 0.25% (v/v). The FDA-approved anticancer drug set is available from the Developmental Therapeutics Program at https://dtp.cancer.gov/organization/dscb/obtaining/available_plates.htm. All drugs and investigational agents were tested over a range starting from a high concentration at or near the clinical Cmax and decreasing in half-log increments. If the clinical Cmax for an agent had not been determined, the highest concentration tested was 10 microM.
Cell Lines. The patient-derived cancer cell (PDC) lines: 292921-168-R-J2-PDC, K24384-001-R-PDC, and 521955-158-R2-J5-PDC pancreatic carcinomas, 556581-035-R-J1 ovarian carcinoma, 324938-238-R-J1-PDC, 855422-203-R-J1-PDC and 883617-216-R-J1-PDC urothelial bladder carcinomas, 743489-274-T-PDC renal cell carcinoma, 138582-R-J1 Merkel cell tumor, K60290-347-R-J1 and K57222-313-R-J1-PDC glioblastomas, 653999-131-R-J2-PDC, LG0703-F948-PDC, and 349418-098-R-PDC non-small cell lung carcinomas, 885512-296-R-J2-PDC, 171881-019-R-J1-PDC breast carcinomas and 186277-243-T-J2-PDC and 233499-124-R-J2-PDC colon carcinomas were obtained from the NCI Patient-Derived Models Repository (PDMR, https://pdmr.cancer.gov). The established cell lines NCI/ADR-RES (RRID:CVCL_14520 and OVCAR-5 (RRID:CVCL_1628) ovarian carcinomas, 786-O (RRID:CVCL_1051) and A498 (RRID:CVCL_A498) renal cell carcinoma, NCI-H211 (ATCC, cat. CRL-5824; RRID:CVCL_1529), NCI-H196 (ATCC, cat. CRL-5823, RRID:CVCL_1509), SW 1271 (ATCC, cat. CRL-2177, RRID:CVCL_1716) and NCI-H1876 (ATCC, cat. CRL-5902, RRID:CVCL_1503) small cell lung carcinomas, MDA-MB-231 (RRID:CVCL_0062) and MDA-MB-468 (RRID:CVCL_0419)breast carcinomas (10-12). Pooled donor human umbilical vein endothelial cells (HUVEC, Lonza, cat. CC-2519) and human mesenchymal stem cells (hMSC, Lonza, cat. PT-2501) were purchased from Lonza (Walkersville, MD).
Cell Culture. All cells were maintained in an incubator at 37 degrees C and 5% CO2 with 95% humidity. The PDC lines were cultured according to standard operating procedures established by the NCI PDMR (https://pdmr.cancer.gov). Briefly all PDCs were thawed and cultured in Matrigel-coated flasks prepared with a working solution of 1X Ham's F-12 nutrient mix, without supplementation (Invitrogen, Waltham, MA, cat. 11765054), 100 U/mL penicillin-streptomycin (Invitrogen, cat. 15140122), and 2.5% Matrigel (Corning Inc., Corning, NY, cat. 354248) for the first three passages. […]

In the case of `CC(C)CC(NC(=O)C(Cc1ccccc1)NC(=O)c1cnccn1)B(O)O` (stereo unspecified), the IC50 is 1.09 nM and < 0.316 nM. Under “compound 0.000316 µM”, the viability, T/C was 104% and 34.9%. The viability, T/C (compound 0.00316 µM) was 1.86% and 0.16%. In addition, the viability, T/C (compound 0.01 µM) was 0.35% and 0.17%. Besides, for the setting “compound 0.0316 µM”, the viability, T/C was 0.31% and 0.14%. Further, the viability, T/C (compound 0.1 µM) is 0.31% and 0.17%.
Turning to `CC(C)CC(NC(=O)CNC(=O)c1cc(Cl)ccc1Cl)B1OC(=O)CC(CC(=O)O)(C(=O)O)O1` (stereo unspecified), the IC50 is 7.67 nM and 4.84 nM. Where the note is “compound 0.000316 µM”, the viability, T/C was 99% and 100%. Besides, the viability, T/C (compound 0.001 µM) was 104% and 105%. Where the note is “compound 0.00316 µM”, the viability, T/C is 85.2% and 70.2%. Moreover, for the setting “compound 0.01 µM”, the viability, T/C is 39.5% and 14.9%. The viability, T/C (compound 0.0316 µM) was 6.41% and 1.24%. The viability, T/C (compound 0.1 µM) was 0.95% and 0.27%.
Take `CC1(C)CCC(CN2CCN(c3ccc(C(=O)NS(=O)(=O)c4ccc(NCC5CCOCC5)c([N+](=O)[O-])c4)c(Oc4cnc5[nH]ccc5c4)c3)CC2)=C(c2ccc(Cl)cc2)C1`: the IC50 is 7610 nM and 5060 nM. Also, the viability, T/C (compound 0.0316 µM) was 109%. Besides, the viability, T/C (compound 0.1 µM) is 105% and 107%. Also, the viability, T/C (compound 0.316 µM) is 100% and 114%. Also, for the setting “compound 1 µM”, the viability, T/C is 103% and 123%. For the same compound, where the note is “compound 3.16 µM”, the viability, T/C is 102% and 83.3%.
In the case of `CC1COCCN1c1cc(-c2ccnn2C)c2ccnc(-c3ccn[nH]3)c2n1` (stereo unspecified), the viability, T/C by setting is: (compound 0.00316 µM) 92.8% and 41%; (compound 0.01 µM) 80.5% and 30.1%; (compound 0.0316 µM) 51.5% and 19.3%; (compound 0.1 µM) 35.9% and 18.3%; (compound 0.316 µM) 31.8% and 18.9%; (compound 1 µM) 28.6% and 22.4%.
As for `CC1COCCN1c1cc(C2(S(C)(=N)=O)CC2)nc(-c2ccnc3[nH]ccc23)n1` (stereo unspecified), the IC50 was 1280 nM and 1530 nM. The viability, T/C (compound 0.0316 µM) is 105% and 111%. The viability, T/C (compound 0.1 µM) was 98.6% and 111%. In addition, the viability, T/C (compound 0.316 µM) was 79.9% and 109%. Also, the viability, T/C (compound 1 µM) is 53.7% and 62%. For the same compound, the viability, T/C (compound 3.16 µM) was 36.3% and 31.3%. For the same compound, the viability, T/C (compound 10 µM) is 28.1% and 24%.
Turning to `CCN(c1cc(-c2ccc(CN3CCOCC3)cc2)cc(C(=O)NCc2c(C)cc(C)[nH]c2=O)c1C)C1CCOCC1`, the viability, T/C is 90.6% and 108% (compound 0.00949 µM); 93.6% and 88.1% (compound 0.03 µM); 82.4% and 61.5% (compound 0.0949 µM); 74.9% and 42.3% (compound 0.3 µM); 66.3% and 25.8% (compound 0.949 µM); 57.7% and 15% (compound 3 µM).
Take `CC[C@@]1(O)C(=O)OCc2c1cc1n(c2=O)Cc2cc3c(CN(C)C)c(O)ccc3nc2-1`: the IC50 is 1.99 nM and 2.01 nM. Besides, for the setting “compound 0.000316 µM”, the viability, T/C is 89.7% and 88.6%. Besides, under “compound 0.001 µM”, the viability, T/C is 64.9% and 65.5%. For the same compound, the viability, T/C (compound 0.00316 µM) is 39.1% and 39.5%. Besides, the viability, T/C (compound 0.01 µM) was 25.3% and 25.9%. Besides, the viability, T/C (compound 0.0316 µM) was 17.1% and 22.8%. Moreover, the viability, T/C (compound 0.1 µM) is 10.3% and 16%.
As to `CCc1c2c(nc3ccc(O)cc13)-c1cc3c(c(=O)n1C2)COC(=O)[C@]3(O)CC`, the IC50 is less than 0.949 nM. The viability, T/C (compound 0.000949 µM) was 13.4% and 18%. The viability, T/C (compound 0.003 µM) is 8.18% and 14.8%. Further, the viability, T/C (compound 0.00949 µM) was 7.45% and 15.4%. Moreover, the viability, T/C (compound 0.03 µM) was 9.98% and 5.59%. Further, the viability, T/C (compound 0.0949 µM) was 5.58% and 0.92%. The viability, T/C (compound 0.3 µM) was 2.32% and 0.78%.
Take `COc1cc(C2c3cc4c(cc3C(OC3OC5COC(C)OC5C(O)C3O)C3COC(=O)C23)OCO4)cc(OC)c1O` (stereo unspecified): the IC50 is 108 nM and 30.6 nM. Further, under “compound 0.00949 µM”, the viability, T/C is 96.1% and 79.9%. Moreover, where the note is “compound 0.03 µM”, the viability, T/C was 76.1% and 47.9%. For the same compound, the viability, T/C (compound 0.0949 µM) is 49.9% and 32.6%. Further, the viability, T/C (compound 0.3 µM) is 35% and 22.9%. For the same compound, where the note is “compound 0.949 µM”, the viability, T/C was 13.5% and 10.3%. For the same compound, under “compound 3 µM”, the viability, T/C was 6.1% and 8.34%.
For `COc1cc(Nc2ncc3c(n2)-c2ccc(Cl)cc2C(c2c(F)cccc2OC)=NC3)ccc1C(=O)O`, the IC50 was 181 nM and 31.7 nM. Also, under “compound 0.00316 µM”, the viability, T/C was 78.5% and 52.8%. In addition, where the note is “compound 0.01 µM”, the viability, T/C is 60.9% and 55.1%. Moreover, the viability, T/C (compound 0.0316 µM) was 56.1% and 50.4%. Further, under “compound 0.1 µM”, the viability, T/C was 57% and 42.6%. Also, the viability, T/C (compound 0.316 µM) was 50.3% and 38.8%. In addition, the viability, T/C (compound 1 µM) was 41.5% and 23.2%.
